Experimental data reported in patent publication US10168342B2, “Lipid probes and uses thereof” (THE SCRIPPS RESEARCH INSTITUTE, priority 2015, dated 2019).

Key:
Assay in all cases: isoTOP-ABPP mapping of AEA-DA-modified peptides in Neuro2a cells
Type in all cases: cell-based
[1] = biological target: T1, AEA-DA-modified peptides in Neuro2a cells (Mus musculus, UniProt P09103); conditions: probe 100 μM, 12 replicates
T1 construct: endogenous in cells; host or cells: Neuro2a

[2] = biological target: T2, AEA-DA-modified peptides in Neuro2a cells (Mus musculus, UniProt Q8CIV2); conditions: AEA-DA-modified peptide ORF61 Q8CIV2 245-263, SEQ ID NO 75; probe 100 μM, 12 replicates
T2 construct: endogenous in cells; host or cells: Neuro2a
T2 sequence (Q8CIV2 whole entry): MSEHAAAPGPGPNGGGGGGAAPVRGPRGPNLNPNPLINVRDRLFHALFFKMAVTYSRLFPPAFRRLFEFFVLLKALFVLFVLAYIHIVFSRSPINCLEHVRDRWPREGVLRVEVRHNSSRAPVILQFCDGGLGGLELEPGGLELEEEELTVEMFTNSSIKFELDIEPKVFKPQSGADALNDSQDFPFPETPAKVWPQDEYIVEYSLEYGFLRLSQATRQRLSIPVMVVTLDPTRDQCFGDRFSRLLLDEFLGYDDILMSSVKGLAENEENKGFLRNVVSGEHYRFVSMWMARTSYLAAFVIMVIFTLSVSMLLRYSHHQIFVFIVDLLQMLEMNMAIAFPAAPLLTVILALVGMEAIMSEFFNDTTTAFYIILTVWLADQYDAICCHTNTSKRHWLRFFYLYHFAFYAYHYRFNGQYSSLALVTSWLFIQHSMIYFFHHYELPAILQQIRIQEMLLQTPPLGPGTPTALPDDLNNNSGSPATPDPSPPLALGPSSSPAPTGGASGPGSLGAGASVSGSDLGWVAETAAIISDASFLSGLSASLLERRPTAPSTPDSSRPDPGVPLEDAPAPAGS

[3] = biological target: T3, AEA-DA-modified peptides in Neuro2a cells (Mus musculus, UniProt Q60716); conditions: AEA-DA-modified peptide P4HA2 Q60716 177-197, SEQ ID NO 76; probe 100 μM, 12 replicates
T3 construct: endogenous in cells; host or cells: Neuro2a
T3 sequence (Q60716 24-537): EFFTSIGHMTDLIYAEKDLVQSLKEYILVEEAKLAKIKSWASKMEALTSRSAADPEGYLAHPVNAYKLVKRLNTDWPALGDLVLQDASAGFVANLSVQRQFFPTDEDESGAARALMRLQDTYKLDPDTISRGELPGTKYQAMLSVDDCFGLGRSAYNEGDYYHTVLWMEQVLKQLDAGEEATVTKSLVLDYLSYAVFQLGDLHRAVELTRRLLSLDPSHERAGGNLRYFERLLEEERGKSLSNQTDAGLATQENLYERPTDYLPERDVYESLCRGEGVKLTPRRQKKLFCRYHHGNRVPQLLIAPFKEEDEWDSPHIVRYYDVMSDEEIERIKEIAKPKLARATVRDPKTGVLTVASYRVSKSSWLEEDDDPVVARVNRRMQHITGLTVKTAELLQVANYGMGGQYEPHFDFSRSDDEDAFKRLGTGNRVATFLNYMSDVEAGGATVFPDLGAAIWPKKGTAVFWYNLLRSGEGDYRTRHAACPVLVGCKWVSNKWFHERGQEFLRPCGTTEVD

[4] = biological target: T4, AEA-DA-modified peptides in Neuro2a cells (Mus musculus, UniProt Q925I1); conditions: AEA-DA-modified peptide ATAD3 Q92511 238-246, SEQ ID NO 16; probe 100 μM, 12 replicates
T4 construct: endogenous in cells; host or cells: Neuro2a
T4 sequence (Q925I1 whole entry): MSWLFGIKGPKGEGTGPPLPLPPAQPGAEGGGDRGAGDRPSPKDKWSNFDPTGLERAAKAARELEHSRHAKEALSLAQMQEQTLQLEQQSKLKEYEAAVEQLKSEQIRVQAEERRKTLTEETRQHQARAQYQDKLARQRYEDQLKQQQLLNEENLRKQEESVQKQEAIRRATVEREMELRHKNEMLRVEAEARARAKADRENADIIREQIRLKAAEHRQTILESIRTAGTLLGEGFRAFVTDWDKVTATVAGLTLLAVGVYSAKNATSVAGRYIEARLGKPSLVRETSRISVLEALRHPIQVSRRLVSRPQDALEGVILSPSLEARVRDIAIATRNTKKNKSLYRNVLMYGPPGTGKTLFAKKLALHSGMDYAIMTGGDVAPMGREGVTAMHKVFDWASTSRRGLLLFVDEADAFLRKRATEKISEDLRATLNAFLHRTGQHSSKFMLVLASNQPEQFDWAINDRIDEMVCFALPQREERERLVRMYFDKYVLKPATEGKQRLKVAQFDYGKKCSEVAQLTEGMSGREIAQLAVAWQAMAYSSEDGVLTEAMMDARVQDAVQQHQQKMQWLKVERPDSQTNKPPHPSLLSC

[5] = biological target: T5, AEA-DA-modified peptides in Neuro2a cells (Mus musculus, UniProt P36536); conditions: AEA-DA-modified peptide SAR1A P36536 192-199, SEQ ID NO 95; probe 100 μM, 12 replicates
T5 construct: endogenous in cells; host or cells: Neuro2a
T5 sequence (P36536 whole entry): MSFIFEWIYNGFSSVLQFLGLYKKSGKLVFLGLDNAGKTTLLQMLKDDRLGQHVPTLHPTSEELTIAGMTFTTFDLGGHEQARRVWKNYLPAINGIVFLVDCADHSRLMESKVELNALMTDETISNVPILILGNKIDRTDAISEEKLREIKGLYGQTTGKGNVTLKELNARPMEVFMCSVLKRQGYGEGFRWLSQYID

[6] = biological target: T6, AEA-DA-modified peptides in Neuro2a cells (Mus musculus, UniProt Q99M71); conditions: AEA-DA-modified peptide EPDR1 Q99M71 171-182, SEQ ID NO 38; probe 100 μM, 12 replicates
T6 construct: endogenous in cells; host or cells: Neuro2a
T6 sequence (Q99M71 38-224): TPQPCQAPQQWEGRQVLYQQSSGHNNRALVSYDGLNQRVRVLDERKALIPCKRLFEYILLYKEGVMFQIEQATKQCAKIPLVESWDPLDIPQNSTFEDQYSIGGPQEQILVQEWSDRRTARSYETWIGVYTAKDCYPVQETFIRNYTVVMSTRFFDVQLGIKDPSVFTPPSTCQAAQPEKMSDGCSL

[7] = biological target: T7, AEA-DA-modified peptides in Neuro2a cells (Mus musculus, UniProt Q99J47); conditions: AEA-DA-modified peptide DHRS7B Q99J47 284-300, SEQ ID NO 31; probe 100 μM, 12 replicates
T7 construct: endogenous in cells; host or cells: Neuro2a
T7 sequence (Q99J47 whole entry): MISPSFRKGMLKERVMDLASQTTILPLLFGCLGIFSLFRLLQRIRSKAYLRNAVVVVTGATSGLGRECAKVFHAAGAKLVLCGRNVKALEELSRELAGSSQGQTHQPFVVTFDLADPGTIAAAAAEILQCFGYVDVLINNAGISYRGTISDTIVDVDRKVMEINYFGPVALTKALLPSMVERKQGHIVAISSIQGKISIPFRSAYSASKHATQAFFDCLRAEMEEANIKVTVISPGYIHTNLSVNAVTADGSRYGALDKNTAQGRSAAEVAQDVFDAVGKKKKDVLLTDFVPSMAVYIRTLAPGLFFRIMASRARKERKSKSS

[8] = biological target: T8, AEA-DA-modified peptides in Neuro2a cells (Mus musculus, UniProt Q60864); conditions: AEA-DA-modified peptide STIP1 Q60864 506-514, SEQ ID NO 106; probe 100 μM, 12 replicates
T8 construct: endogenous in cells; host or cells: Neuro2a

[9] = biological target: T9, AEA-DA-modified peptides in Neuro2a cells (Mus musculus, UniProt Q99KQ4); conditions: probe 100 μM, 12 replicates
T9 construct: endogenous in cells; host or cells: Neuro2a
T9 sequence (Q99KQ4 whole entry): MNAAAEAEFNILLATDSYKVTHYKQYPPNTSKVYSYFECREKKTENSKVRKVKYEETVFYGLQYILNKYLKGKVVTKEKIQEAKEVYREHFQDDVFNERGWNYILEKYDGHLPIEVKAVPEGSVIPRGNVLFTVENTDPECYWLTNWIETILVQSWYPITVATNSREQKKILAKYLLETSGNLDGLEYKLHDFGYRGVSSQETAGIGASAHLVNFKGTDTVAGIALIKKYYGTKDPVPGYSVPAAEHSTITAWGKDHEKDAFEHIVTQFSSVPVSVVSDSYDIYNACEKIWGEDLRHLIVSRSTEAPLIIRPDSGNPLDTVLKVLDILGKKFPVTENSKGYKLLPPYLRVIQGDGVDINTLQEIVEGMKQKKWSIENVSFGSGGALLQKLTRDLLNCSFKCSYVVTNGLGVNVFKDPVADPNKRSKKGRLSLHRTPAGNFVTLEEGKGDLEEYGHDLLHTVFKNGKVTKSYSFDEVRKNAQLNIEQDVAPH

[10] = biological target: T10, AEA-DA-modified peptides in Neuro2a cells (Mus musculus, UniProt Q99K48); conditions: AEA-DA-modified peptide NONO Q99K48 122-138, SEQ ID NO 69; probe 100 μM, 12 replicates
T10 construct: endogenous in cells; host or cells: Neuro2a
T10 sequence (Q99K48 whole entry): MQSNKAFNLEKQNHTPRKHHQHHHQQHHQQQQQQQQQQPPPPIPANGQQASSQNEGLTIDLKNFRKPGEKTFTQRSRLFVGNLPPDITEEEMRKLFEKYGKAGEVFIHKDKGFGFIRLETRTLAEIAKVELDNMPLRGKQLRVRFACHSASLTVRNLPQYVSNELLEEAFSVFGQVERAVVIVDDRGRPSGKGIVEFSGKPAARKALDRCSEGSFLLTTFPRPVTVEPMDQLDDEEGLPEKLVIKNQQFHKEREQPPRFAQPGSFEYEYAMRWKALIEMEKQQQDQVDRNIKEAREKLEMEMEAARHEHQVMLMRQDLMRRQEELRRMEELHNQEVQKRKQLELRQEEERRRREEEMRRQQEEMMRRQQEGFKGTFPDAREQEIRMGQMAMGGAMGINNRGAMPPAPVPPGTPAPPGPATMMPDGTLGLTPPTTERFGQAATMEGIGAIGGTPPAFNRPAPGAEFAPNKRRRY

[11] = biological target: T11, AEA-DA-modified peptides in Neuro2a cells (Mus musculus, UniProt Q99LR1); conditions: AEA-DA-modified peptide ABHD12 Q99LR1 263-284, SEQ ID NO 1; probe 100 μM, 12 replicates
T11 construct: endogenous in cells; host or cells: Neuro2a
T11 sequence (Q99LR1 whole entry): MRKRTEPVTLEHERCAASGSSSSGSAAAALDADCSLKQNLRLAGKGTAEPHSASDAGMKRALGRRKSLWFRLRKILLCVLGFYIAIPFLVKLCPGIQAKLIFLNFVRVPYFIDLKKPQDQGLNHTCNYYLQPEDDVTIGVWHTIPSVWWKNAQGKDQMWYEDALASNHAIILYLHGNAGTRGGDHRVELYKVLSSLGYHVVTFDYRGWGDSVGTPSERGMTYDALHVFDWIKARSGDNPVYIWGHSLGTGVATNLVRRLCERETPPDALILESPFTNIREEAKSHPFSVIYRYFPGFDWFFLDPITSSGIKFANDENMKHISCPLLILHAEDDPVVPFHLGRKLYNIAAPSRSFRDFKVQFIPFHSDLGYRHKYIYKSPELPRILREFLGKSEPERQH

T1 sequence (P09103 20-509): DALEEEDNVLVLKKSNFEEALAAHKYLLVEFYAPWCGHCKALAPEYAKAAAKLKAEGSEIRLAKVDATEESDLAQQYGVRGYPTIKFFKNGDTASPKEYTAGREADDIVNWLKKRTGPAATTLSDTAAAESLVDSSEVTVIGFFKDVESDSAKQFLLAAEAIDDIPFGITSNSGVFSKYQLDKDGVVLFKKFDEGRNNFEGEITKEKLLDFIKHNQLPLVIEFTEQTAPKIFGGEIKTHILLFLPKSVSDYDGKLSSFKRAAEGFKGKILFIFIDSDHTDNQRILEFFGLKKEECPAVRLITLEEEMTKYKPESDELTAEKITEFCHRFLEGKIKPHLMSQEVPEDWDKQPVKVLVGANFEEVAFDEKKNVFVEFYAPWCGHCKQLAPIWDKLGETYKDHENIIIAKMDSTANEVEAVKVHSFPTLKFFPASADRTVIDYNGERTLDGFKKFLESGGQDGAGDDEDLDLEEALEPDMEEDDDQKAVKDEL

**Q.** `C#CCCCC1(CC/C=C\C/C=C\C/C=C\CCCC(=O)NCCO)N=N1` [AEA-DA, (5Z,8Z,11Z)-N-(2-hydroxyethyl)-14-(3-(pent-4-yn-1-yl)-3H-diazirin-3-yl)tetradeca-5,8,11-trienamide] was tested. Which Times observed ([1]; AEA-DA-modified peptide P4HB P09103 135-165, SEQ ID NO 77) did it give?
**A.** 3

**Q.** And the Times observed ([1]; AEA-DA-modified peptide P4HB P09103 233-250, SEQ ID NO 78)?
**A.** 10

**Q.** And the Times observed [2]?
**A.** 4

**Q.** What about the Times observed [3] of the same molecule?
**A.** 3

**Q.** What about the Times observed [4] of the same molecule?
**A.** 3

**Q.** What about the Times observed [5] of the same molecule?
**A.** 6

**Q.** And the Times observed [6]?
**A.** 3

**Q.** What about the Times observed [7] of the same molecule?
**A.** 2

**Q.** And the Times observed [8]?
**A.** 3

**Q.** And the Times observed ([9]; AEA-DA-modified peptide NAMPT Q99KQ4 175-190, SEQ ID NO 64)?
**A.** 10

**Q.** What about the Times observed ([9]; AEA-DA-modified peptide NAMPT Q99KQ4 303-324, SEQ ID NO 65) of the same molecule?
**A.** 2

**Q.** What about the Times observed [10] of the same molecule?
**A.** 3

**Q.** What about the Times observed [11] of the same molecule?
**A.** 2
